Tested on: PGE2/EP4 signal transduction in MCF7 cells
Assay: Determination of MCF7 cAMP (PGE2-stimulated, HTRF)
Format: cell-based
Conditions: Homo sapiens; MCF7 cells, 10 nM PGE2 stimulation, cAMP HTRF; read-out: MCF7 cAMP IC50
Protocol: • a) MCF7 cells (ATCC, 6000 cells/well/40 μl) were inoculated into a 384-well cell culture plate containing a medium (DMEM containing 10% FBS and 1×PS), and incubated overnight at 37° C. and 5% CO2. • b) The medium was removed, 40 μl/well of serum-free medium was added, and the cells were incubated at 37° C. and 5% CO2 for 5 hours. • c) The medium was replaced with 18 μL/well of HBSS buffer (Hepes 20 mM, 0.1% BSA, 500 μM IBMX). • d) The compound in DMSO was diluted (1/5 dilution, 9+0 dose). • e) 2 μL of the compound in d) was added to 98 μL of HBSS buffer. • f) 1 μL/well of the diluted compound in e) was added to the cells, with a final starting concentration of 1 μM, and the cells were incubated at 37° C. for 1 hour. • g) The cells were stimulated with 1 μL/well of PGE2 (10 mM DMSO stock solution) (final concentration: 10 nM, and DMSO final concentration: 0.2%), and incubated at 37° C. for 30 minutes. • h) After the incubation, 10 μL/well of cAMP-d2 and 10 μL/well of anti-cAMP were added, RT 1 h. • i) HTRF signals (665 nm/615 nm) were read on Envision. Data Analysis: • High control: 1 μM E7046 • Low control: DMSO • Background: 30 μL/well of lysis buffer+10 μL/well of anti-cAMP • Analytical data: original date—background Inhibition %: 100−100×(high control−analytical data)/(high control−low control)

SMILES	IC50
C[C@H](NC(=O)c1cncc2ccn(Cc3cc4ccccc4o3)c12)C12CC(C(=O)O)(C1)C2 [Compound 26-1, (S)-3-(1-(1-(benzofuran-2-ylmethyl)-1H-pyrrolo[3,2-c]pyridine-7-carboxamido)ethyl)bicyclo[1.1.1]pentane-1-carboxylic acid]	30 nM
O=C(NC1(C23CC(C(=O)O)(C2)C3)CC1)c1cccc2ccn(Cc3ccc(-c4cn[nH]c4)cn3)c12 [Compound 15, 3-(1-(1-((5-(1H-Pyrazol-4-yl)pyridin-2-yl)methyl)-1H-indole-7-carboxamido)cyclopropyl) bicyclo[1.1.1]pentane-1-carboxylic acid]	14.5 nM
O=C(NC1(C23CC(C(=O)O)(C2)C3)CC1)c1cccc2ccn(Cc3ccc(N4CCOCC4)cn3)c12 [Compound 10, 3-(1-(1-((5-Morpholinopyridin-2-yl)methyl)-1H-indole-7-carboxamido)cyclopropyl)bicyclo[1.1.1]pentane-1-carboxylic acid]	72 nM
Cn1cc(-c2ccc(Cn3ccc4cccc(C(=O)NC5(C67CC(C(=O)O)(C6)C7)CC5)c43)nc2)cn1 [Compound 14, 3-(1-(1-((5-(1-Methyl-1H-pyrazol-4-yl)pyridin-2-yl)methyl)-1H-indole-7-carboxamido)cyclopropyl)bicyclo[1.1.1]pentane-1-carboxylic acid]	24.4 nM
CC(NC(=O)c1cncc2ccn(Cc3cc4ccccc4o3)c12)C12CC(C(=O)O)(C1)C2 (racemic) [Compound 26, 3-(1-(1-(Benzofuran-2-ylmethyl)-1H-pyrrolo[3,2-c]pyridine-7-carboxamido)ethyl)bicyclo[1.1.1]pentane-1-carboxylic acid]	60 nM
O=C(NC1(C23CC(C(=O)O)(C2)C3)CC1)c1cccc2ccn(Cc3ccc(C4CC4)cn3)c12 [Compound 18, 3-(1-(1-((5-Cyclopropylpyridin-2-yl)methyl)-1H-indole-7-carboxamido)cyclopropyl)bicyclo[1.1.1]pentane-1-carboxylic acid]	62.9 nM
CC(NC(=O)c1cccc2ccn(Cc3cc4ccccc4o3)c12)C12CC(C(=O)O)(C1)C2 (racemic) [Compound 20, 3-(1-(1-(Benzofuran-2-ylmethyl)-1H-indole-7-carboxamido)ethyl)bicyclo[1.1.1]pentane-1-carboxylic acid]	34 nM
O=C(NC1(C23CC(C(=O)O)(C2)C3)CC1)c1cccc2ccn(Cc3ccc(-c4ccccc4CO)cn3)c12 [Compound 19, 3-(1-(1-((5-(2-(Hydroxymethyl)phenyl)pyridin-2-yl)methyl)-1H-indole-7-carboxamido)cyclopropyl)bicyclo[1.1.1]pentane-1-carboxylic acid]	106 nM
C[C@@H](NC(=O)c1cncc2ccn(Cc3cc4ccccc4o3)c12)C12CC(C(=O)O)(C1)C2 [Compound 26-2, (R)-3-(1-(1-(benzofuran-2-ylmethyl)-1H-pyrrolo[3,2-c]pyridine-7-carboxamido)ethyl)bicyclo[1.1.1]pentane-1-carboxylic acid]	> 100 nM
O=C(NC1(C23CC(C(=O)O)(C2)C3)CC1)c1cccc2ccn(Cc3ccc(N4CCCC(O)C4)cn3)c12 (centres unmarked) [Compound 17, 3-(1-(1-((5-(3-Hydroxypiperidin-1-yl)pyridin-2-yl)methyl)-1H-indole-7-carboxamido)cyclopropyl)bicyclo[1.1.1]pentane-1-carboxylic acid]	35 nM
O=C(NC1(C23CC(C(=O)O)(C2)C3)CC1)c1cccc2ccn(Cc3ccc(Cl)cc3)c12 [Compound 4, 3-(1-(1-(4-Chlorobenzyl)-1H-indole-7-carboxamido)cyclopropyl)bicyclo[1.1.1]pentane-1-carboxylic acid]	61 nM
O=C(NC1(C23CC(C(=O)O)(C2)C3)CC1)c1cccc2ccn(Cc3ccc(-c4cccnc4)cn3)c12 [Compound 12, 3-(1-(1-([3,3′-Bipyridin]-6-ylmethyl)-1H-indole-7-carboxamido)cyclopropyl)bicyclo[1.1.1]pentane-1-carboxylic acid]	62.9 nM
O=C(NC1(C23CC(C(=O)O)(C2)C3)CC1)c1cccc2ccn(Cc3ccc(-c4ccccn4)cn3)c12 [Compound 11, 3-(1-(1-([2,3′-Bipyridin]-6′-ylmethyl)-1H-indole-7-carboxamido)cyclopropyl)bicyclo[1.1.1]pentane-1-carboxylic acid]	30 nM
O=C(NC1(C23CC(C(=O)O)(C2)C3)CC1)c1cccc2ccn(Cc3ccc(-c4cnn(CCCO)c4)cn3)c12 [Compound 16, 3-(1-(1-((5-(1-(3-Hydroxypropyl)-1H-pyrazol-4-yl)pyridin-2-yl)methyl)-1H-indole-7-carboxamido)cyclopropyl)bicyclo[1.1.1]pentane-1-carboxylic acid]	215 nM
C[C@@H](NC(=O)c1cccc2ccn(Cc3cc4ccccc4o3)c12)C12CC(C(=O)O)(C1)C2 [Compound 20-6, (R)-3-(1-(1-(benzofuran-2-ylmethyl)-1H-indole-7-carboxamido)ethyl)bicyclo[1.1.1]pentane-1-carboxylic acid]	78 nM

Now those with a lower IC50, led by results:

IC50	SMILES
12 nM	O=C(NC1(C23CC(C(=O)O)(C2)C3)CC1)c1cccc2ccn(Cc3nc4ccccc4s3)c12 [Compound 24, 3-(1-(1-(Benzo[d]thiazol-2-ylmethyl)-1H-indole-7-carboxamido)cyclopropyl)bicyclo[1.1.1]pentane-1-carboxylic acid]
11.5 nM	O=C(NC1(C23CC(C(=O)O)(C2)C3)CC1)c1cccc2ccn(Cc3ccc(-c4ccncc4)cn3)c12 [Compound 13, 3-(1-(1-([3,4′-Bipyridin]-6-ylmethyl)-1H-indole-7-carboxamido)cyclopropyl)bicyclo[1.1.1]pentane-1-carboxylic acid]
0.75 nM	O=C(NC1(C23CC(C(=O)O)(C2)C3)CC1)c1cc(F)cc2ccn(Cc3cc4ccccc4o3)c12 [Compound 32]
1.5 nM	[2H]C(c1cc2ccccc2o1)n1ccc2cccc(C(=O)NC3(C45CC(C(=O)O)(C4)C5)CC3)c21 (centres unmarked) [Compound 29, 3-(1-(1-(Benzofuran-2-ylmethyl-d)-1H-indole-7-carboxamido)cyclopropyl)bicyclo[1.1.1]pentane-1-carboxylic acid]
1.1 nM	[2H]C([2H])(c1cc2ccccc2o1)n1ccc2cccc(C(=O)NC3(C45CC(C(=O)O)(C4)C5)CC3)c21 [Compound 30, 3-(1-(1-(1-Benzofuran-2-ylmethyl-d2)-1H-indole-7-carboxamido)cyclopropyl)bicyclo[1.1.1]pentane-1-carboxylic acid]
1.5 nM	O=C(NC1(C23CC(C(=O)O)(C2)C3)CC1)c1cncc2ccn(Cc3cc4cc(C(F)(F)F)ccc4o3)c12 [Compound 28, 3-(1-(1-((5-(Trifluoromethyl)benzofuran-2-yl)methyl)-1H-pyrrolo[3,2-c]pyridine-7-carboxamido)cyclopropyl)bicyclo[1.1.1] pentane-1-carboxylic acid]
14 nM	C[C@H](NC(=O)c1cccc2ccn(Cc3cc4ccccc4o3)c12)C12CC(C(=O)O)(C1)C2 [Compound 20-5, (S)-3-(1-(1-(benzofuran-2-ylmethyl)-1H-indole-7-carboxamido)ethyl)bicyclo[1.1.1]pentane-1-carboxylic acid]
7.8 nM	O=C(NC1(C23CC(C(=O)O)(C2)C3)CC1)c1cccc2ccn(Cc3ccc4ccccc4n3)c12 [Compound 3, 3-(1-(1-(Quinolin-2-ylmethyl)-1H-indole-7-carboxamido)cyclopropyl)bicyclo[1.1.1]pentane-1-carboxylic acid]
8 nM	O=C(NC1(C23CC(C(=O)O)(C2)C3)CC1)c1cccc2ccn(Cc3nc4ccccc4o3)c12 [Compound 23, 3-(1-(1-(Benzo[d]oxazol-2-ylmethyl)-1H-indole-7-carboxamido)cyclopropyl)bicyclo[1.1.1]pentane-1-carboxylic acid]
5.5 nM	O=C(NC1(C23CC(C(=O)O)(C2)C3)CC1)c1cccc2ccn(Cc3ccc(-c4ccccc4)nc3)c12 [Compound 5, 3-(1-(1-((6-Phenylpyridin-3-yl)methyl)-1H-indole-7-carboxamido)cyclopropyl)bicyclo[1.1.1]pentane-1-carboxylic acid]
1.2 nM	O=C(NC1(C23CC(C(=O)O)(C2)C3)CC1)c1cncc2ccn(Cc3cc4cc(F)ccc4o3)c12 [Compound 27, 3-(1-(1-((5-Fluorobenzofuran-2-yl)methyl)-1H-pyrrolo[3,2-c]pyridine-7-carboxamido)cyclopropyl)bicyclo[1.1.1]pentane-1-carboxylic acid]
1.4 nM	O=C(NC1(C23CC(C(=O)O)(C2)C3)CC1)c1cccc2ccn(Cc3cc4ccc(F)cc4o3)c12 [Compound 22, 3-(1-(1-((6-Fluorobenzofuran-2-yl)methyl)-1H-indole-7-carboxamido)cyclopropyl)bicyclo[1.1.1]pentane-1-carboxylic acid]
1.2 nM	[2H]C1([2H])C([2H])([2H])C1(NC(=O)c1cccc2ccn(Cc3cc4ccccc4o3)c12)C12CC(C(=O)O)(C1)C2 [Compound 31]
2.9 nM	O=C(NC1(C23CC(C(=O)O)(C2)C3)CC1)c1cc(Cl)cc2ccn(Cc3ccc(C(F)(F)F)cc3)c12 [Compound 8, 3-(1-(5-Chloro-1-(4-(trifluoromethyl)benzyl)-1H-indole-7-carboxamido)cyclopropyl)bicyclo[1.1.1]pentane-1-carboxylic acid]

Source: patent US12240812B2, “Compound for inhibiting PGE2/EP4 signaling transduction inhibiting, preparation method therefor, and medical uses thereof” (Keythera (Suzhou) Pharmaceuticals Co. Ltd., priority 2019, dated 2025)
